Each structure is given as a SMILES string. pEC50: −log10 of the molar value.

One experiment concerns the target T1, TLR7 (Homo sapiens, UniProt Q9NYK1).
T1 construct: Human peripheral blood mononuclear cells (PBMCs) consist of lymphocytes, monocytes and dendritic cells that express TLR7, TLR8 and TLR9; endogenous in cells; host or cells: cryopreserved human PBMCs from healthy donors
T1 sequence (Q9NYK1 27-1049): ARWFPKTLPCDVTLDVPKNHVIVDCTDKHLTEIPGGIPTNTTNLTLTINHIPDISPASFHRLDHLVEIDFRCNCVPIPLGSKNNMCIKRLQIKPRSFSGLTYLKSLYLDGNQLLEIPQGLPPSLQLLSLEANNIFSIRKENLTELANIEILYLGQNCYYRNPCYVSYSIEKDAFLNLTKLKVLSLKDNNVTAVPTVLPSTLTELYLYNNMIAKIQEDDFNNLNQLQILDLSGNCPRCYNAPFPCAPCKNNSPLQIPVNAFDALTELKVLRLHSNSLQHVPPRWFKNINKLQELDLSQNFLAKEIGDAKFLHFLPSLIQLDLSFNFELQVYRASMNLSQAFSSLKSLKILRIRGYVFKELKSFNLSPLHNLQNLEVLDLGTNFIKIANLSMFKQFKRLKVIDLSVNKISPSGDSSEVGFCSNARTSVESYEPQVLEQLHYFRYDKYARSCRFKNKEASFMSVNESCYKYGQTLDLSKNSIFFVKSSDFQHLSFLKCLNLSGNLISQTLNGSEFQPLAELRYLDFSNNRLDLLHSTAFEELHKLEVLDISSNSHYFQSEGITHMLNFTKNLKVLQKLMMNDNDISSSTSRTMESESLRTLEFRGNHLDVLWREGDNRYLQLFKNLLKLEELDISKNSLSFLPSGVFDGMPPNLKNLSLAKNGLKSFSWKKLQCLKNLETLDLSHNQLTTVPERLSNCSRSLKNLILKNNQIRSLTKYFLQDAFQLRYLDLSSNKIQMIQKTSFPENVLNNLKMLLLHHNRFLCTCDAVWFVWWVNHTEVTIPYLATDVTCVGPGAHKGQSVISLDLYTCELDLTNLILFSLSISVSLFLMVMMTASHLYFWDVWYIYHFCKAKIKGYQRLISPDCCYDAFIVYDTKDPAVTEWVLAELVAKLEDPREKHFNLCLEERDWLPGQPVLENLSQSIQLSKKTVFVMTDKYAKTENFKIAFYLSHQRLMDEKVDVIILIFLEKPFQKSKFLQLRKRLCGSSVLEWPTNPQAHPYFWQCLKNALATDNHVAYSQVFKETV
Kind of experiment: TLR7 human PBMC cell-based assay (antagonist, GS-986 stimulated cytokine release). The following applies: human PBMCs; TLR7 agonist GS-986 400 nM, 6 hours; cytokines (IL-6 and IFNα) in supernatant; read-out: TLR-7 EC50. In short, it runs like this:
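Cryopreserved healthy-donor PBMCs (100,000/well, RPMI-1640 + 10% FBS) pre-incubated 1 h at 37 °C with antagonist (10-point dose response, quadruplicate), then stimulated 6 h with GS-986 at 400 nM final. Supernatant IL-6 and IFNα measured by electrochemiluminescence immunoassay; EC50 from sigmoidal fit.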

A further experiment concerns the target T2, TLR8 (Homo sapiens, UniProt Q9NR97).
T2 construct: Human peripheral blood mononuclear cells (PBMCs) consist of lymphocytes, monocytes and dendritic cells that express TLR7, TLR8 and TLR9; endogenous in cells; host or cells: cryopreserved human PBMCs from healthy donors
T2 sequence (Q9NR97 27-1041): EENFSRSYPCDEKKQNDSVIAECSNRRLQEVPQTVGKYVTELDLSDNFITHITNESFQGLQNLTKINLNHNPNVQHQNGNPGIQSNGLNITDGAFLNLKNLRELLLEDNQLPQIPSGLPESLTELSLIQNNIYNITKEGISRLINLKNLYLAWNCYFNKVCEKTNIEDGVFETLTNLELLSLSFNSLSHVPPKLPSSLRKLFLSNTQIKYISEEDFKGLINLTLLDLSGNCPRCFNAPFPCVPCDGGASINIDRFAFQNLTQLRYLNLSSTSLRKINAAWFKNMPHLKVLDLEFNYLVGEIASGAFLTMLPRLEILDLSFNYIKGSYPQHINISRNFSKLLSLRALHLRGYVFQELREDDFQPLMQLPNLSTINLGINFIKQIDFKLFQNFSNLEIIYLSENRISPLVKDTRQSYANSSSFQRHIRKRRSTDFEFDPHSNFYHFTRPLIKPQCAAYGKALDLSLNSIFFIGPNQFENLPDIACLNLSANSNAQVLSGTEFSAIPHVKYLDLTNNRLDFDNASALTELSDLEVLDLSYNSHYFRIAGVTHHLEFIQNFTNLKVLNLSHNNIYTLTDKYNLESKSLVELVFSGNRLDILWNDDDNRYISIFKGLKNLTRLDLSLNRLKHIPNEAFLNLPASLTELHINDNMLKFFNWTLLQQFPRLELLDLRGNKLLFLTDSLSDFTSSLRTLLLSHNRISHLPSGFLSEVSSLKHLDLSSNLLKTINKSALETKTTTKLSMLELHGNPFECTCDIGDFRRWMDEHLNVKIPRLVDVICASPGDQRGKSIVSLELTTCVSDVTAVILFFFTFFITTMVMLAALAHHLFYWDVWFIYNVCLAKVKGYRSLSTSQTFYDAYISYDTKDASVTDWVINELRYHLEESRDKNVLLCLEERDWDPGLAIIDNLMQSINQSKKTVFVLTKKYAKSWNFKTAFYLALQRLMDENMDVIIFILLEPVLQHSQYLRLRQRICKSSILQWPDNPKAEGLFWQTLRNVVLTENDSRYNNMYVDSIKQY
Kind of experiment: TLR8 human PBMC cell-based assay (antagonist, Compound A stimulated cytokine release). The following applies: human PBMCs; TLR8 agonist Compound A 800 nM, 6 hours; cytokines (TNFa and IL 12p40) in supernatant; read-out: TLR-8 EC50. In short, it runs like this: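 Cryopreserved donor PBMCs (100,000/well, RPMI + 10% FBS) were preincubated 1 h with antagonist (10-point dose response, quadruplicate), then stimulated with Compound A (800 nM final) for 6 h at 37 °C. TNFa and IL-12p40 in supernatants were measured by electrochemiluminescence; sigmoidal fits gave EC50.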

In the case of `Cc1c(-c2[nH]c3cc(C(=O)N(C)C4CCN(C)CC4)sc3c2C(C)C)cn2ncnc2c1C` [Example 151], the pEC50 (as a rule, the negative decadic logarithm of the EC50, by convention in mol/L) was 9.10 on TLR7 and 9.22 on TLR8.

For the molecule `Cc1cc(-c2[nH]c3cc(C(=O)N4CCN[C@H](C(F)(F)F)C4)sc3c2C(C)C)cn2ncnc12` [Example 152], the pEC50 on TLR7 was 7.04; at TLR8 it was 7.23.

Regarding `Cc1cc(-c2[nH]c3cc(C(=O)N(C)[C@@H]4CCCNC4)sc3c2C(C)C)cn2ncnc12` [Example 153], the pEC50 on TLR7 is 8.62; on TLR8 it was 8.19.

With `Cc1cc(-c2[nH]c3cc(C4CCNCC4)sc3c2C(C)C)cn2ncnc12` [Example 154, 6-isopropyl-5-(8-methyl-[1,2,4]triazolo[1,5-a]pyridin-6-yl)-2-(piperidin-4-yl)-4H-thieno[3,2-b]pyrrole], the pEC50 is 9.22 at TLR7 and 8.44 at TLR8.

In the case of `Cc1cc(-c2[nH]c3cc(C4CCCNC4)sc3c2C(C)C)cn2ncnc12` (centres unmarked) [Example 155], the pEC50 is 8.32 at TLR7 and 8.24 at TLR8.

As for `Cc1cc(-c2[nH]c3cc(C4CC5CCC(C4)N5)sc3c2C(C)C)cn2ncnc12` (centres unmarked) [Example 156], the pEC50 on TLR7 was 10.00; at TLR8, 8.06.

On to `Cc1cc(-c2[nH]c3cc(C4CCC5CNCC5C4)sc3c2C(C)C)cn2ncnc12` (centres unmarked) [Example 157], for which the figures for the pEC50 at TLR7 and at TLR8 were 9.52 and 7.50, respectively.

Turning to `Cc1cc(-c2[nH]c3cc(C4CC5CNCC5C4)sc3c2C(C)C)cn2ncnc12` (centres unmarked) [Example 158], the pEC50 on TLR7 is 9.70; on TLR8, 7.89.

Turning to `Cc1cc(-c2[nH]c3cc(C4CCCC5(CNC5)C4)sc3c2C(C)C)cn2ncnc12` (centres unmarked) [Example 159], the pEC50 at TLR7 was 8.92; on TLR8, 7.43.

With `Cc1cc(-c2[nH]c3cc(C4CCC5(CC4)CNC5)sc3c2C(C)C)cn2ncnc12` [Example 160], the pEC50 is 9.40 at TLR7 and 8.15 at TLR8.

Take `Cc1cc(-c2[nH]c3cc(C4CCNC4)sc3c2C(C)C)cn2ncnc12` (centres unmarked) [Example 161]: the pEC50 was 8.02 on TLR7 and 7.91 at TLR8.

Consider `Cc1cc(-c2[nH]c3cc(C4CCC5(CNC5)C4)sc3c2C(C)C)cn2ncnc12` (centres unmarked) [Example 162], for which the pEC50 at TLR7 was 9.22; at TLR8 it was 7.95.

For `Cc1cc(-c2[nH]c3cc(C4CCN(CC(N)=O)CC4)sc3c2C(C)C)cn2ncnc12` [Example 164, 2-[4-[6-isopropyl-5-(8-methyl-[1,2,4]triazolo[1,5-a]pyridin-6-yl)-4H-thieno[3,2-b]pyrrol-2-yl]-1-piperidyl]acetamide], the values for the pEC50 at TLR7 and on TLR8 were 8.82 and 8.55, respectively.

For the molecule `Cc1cc(-c2[nH]c3cc(C4=NC5(CCN(CC(N)=O)CC5)CO4)sc3c2C(C)C)cn2ncnc12` [Example 165], the negative logarithm of the EC50 (pEC50) at TLR7 was 8.77; on TLR8 it was 6.94.

For the molecule `Cc1cc(-c2[nH]c3cc(-c4nc(C5CCN(CC(N)=O)CC5)no4)sc3c2C(C)C)cn2ncnc12` [Example 166], the pEC50 on TLR7 and at TLR8 was 8.29 throughout.

Turning to `Cc1cc(-c2[nH]c3cc(C(=O)N(C4CCC4)C4CCN(CC(N)=O)CC4)sc3c2C(C)C)cn2ncnc12` [Example 167], the pEC50 was 7.85 at TLR7 and 7.28 on TLR8.

For `Cc1cc(-c2[nH]c3cc(-c4nnc(C5CCN(CC(N)=O)CC5)s4)sc3c2C(C)C)cn2ncnc12` [Example 168], the pEC50 at TLR7 was 8.57; on TLR8, 8.55.

As for `CCc1c(-c2cc(C)c3ncnn3c2)[nH]c2cc(-c3nc4ccc(N5CCN(CC(N)=O)CC5)cc4[nH]3)sc12` [Example 169], the pEC50 at TLR7 is 6.84; on TLR8, 7.14.

Take `Cc1cc(-c2[nH]c3cc(-c4ccc5nc(C6[C@H]7CC[C@H](C7)N6CC(N)=O)[nH]c5c4)sc3c2C(C)C)cn2ncnc12` (some centres unmarked) [Example 170]: the pEC50 was 8.92 on TLR7 and 7.98 at TLR8.

As for `Cc1cc(-c2[nH]c3cc(C4CCCN(CC(N)=O)C4)sc3c2C(C)C)cn2ncnc12` (centres unmarked) [Example 171], the pEC50 at TLR7 was 7.61; at TLR8 it was 7.84.

For `Cc1cc(-c2[nH]c3cc(-c4cnn(C5CCN(CC(N)=O)CC5)c4)sc3c2C(C)C)cn2ncnc12` [Example 172], the pEC50 on TLR7 was 7.87; on TLR8 it was 8.22.

In the case of `Cc1cc(-c2[nH]c3cc(-c4cnc5c(c4)CN(CC(N)=O)CC5)sc3c2C(C)C)cn2ncnc12` [Example 173], the pEC50 at TLR7 is 8.10; on TLR8, 8.32.

Consider `Cc1cc(-c2[nH]c3cc(C(=O)N(C)CC4CCN(CC(N)=O)CC4)sc3c2C(C)C)cn2ncnc12` [Example 174], for which the pEC50 on TLR7 is 7.94; on TLR8 it was 7.77.

For `Cc1cc(-c2[nH]c3cc(C(=O)N4CCC5(CCN(CC(N)=O)C5)CC4)sc3c2C(C)C)cn2ncnc12` [Example 175], the pEC50 on TLR7 is 9.10; on TLR8, 8.39.

As to `Cc1cc(-c2[nH]c3cc(C(=O)N4CCC5(CCN(CC(N)=O)CC5)C4)sc3c2C(C)C)cn2ncnc12` [Example 176], the results for the pEC50 on TLR7 and at TLR8 were 8.19 and 7.65, respectively.

Regarding `Cc1cc(-c2[nH]c3cc(C4CCC5(CC4)CN(CC(N)=O)C5)sc3c2C(C)C)cn2ncnc12` [Example 177], the pEC50 is 9.70 on TLR7 and 9.00 on TLR8.

Take `Cc1cc(-c2[nH]c3cc(C(=O)N(C)C4CCN(CC(N)=O)CC4)sc3c2C(C)C)cn2ncnc12` [Example 178]: the results for the pEC50 on TLR7 and on TLR8 were 8.89 and 7.76, respectively.

As for `Cc1cc(-c2[nH]c3cc(C(=O)N(C)[C@H]4CCN(CC(N)=O)C4)sc3c2C(C)C)cn2ncnc12` [Example 179], the pEC50 is 7.90 on TLR7 and 7.48 on TLR8.

Take `Cc1cc(-c2[nH]c3cc(C(=O)N(C)C4CCN(C(=O)CN(C)C)CC4)sc3c2C(C)C)cn2ncnc12` [Example 180]: the pEC50 was 9.15 at TLR7 and 7.94 on TLR8.

As to `Cc1cc(-c2[nH]c3cc(C4CCN(C(=O)CN(C)C)CC4)sc3c2C(C)C)cn2ncnc12` [Example 181], the figures for the pEC50 on TLR7 and on TLR8 were 9.00 and 8.11, respectively.

In the case of `Cc1cc(-c2[nH]c3cc(C(=O)N(C)C4CCN(CC#N)CC4)sc3c2C(C)C)cn2ncnc12` [Example 182], the figures for the pEC50 at TLR7 and at TLR8 were 8.06 and 7.40, respectively.
